# Measured values published in publication PMC4854767 (Clinical cancer research : an official journal of the …, 2016).
# Like-named read-outs stand apart in the source and are kept apart here.
# How the values were obtained:
# MCF-7 tumors [1] = details: for peak apoptosis, tumor cells (TUNEL): in combination with fulv
# [2] = GDC-0941 plasma pharmacokinetics in mice
# MCF-7 cells [3] = assay: Caspase-3/7-activatable luciferase reporter in MCF-7 cells; assay type: cell-based, human; details: 1 µM fulv for 2 d before 1 µM GDC-0941 for 12, 24 or 36 h, combination
# in vivo = details: NOD-scid/IL2Rγ−/− (NSG; NOD.Cg-Prkdcscid Il2rgtm1Wjl/SzJ), mouse, plasma, po, 800 mg/kg
# ZR75-1 cells = assay: Caspase-3/7-activatable luciferase reporter in ZR75-1 cells; assay type: cell-based, human; details: 1 µM fulv for 2 d before 1 µM GDC-0941 for 12 or 24 h, combination
# [4] = GDC-0941 intratumor pharmacokinetics in mice bearing MCF-7 xenografts; assay type: in vivo; details: for time of peak intratumor concentration: fulv pretreatment
# MCF-7 cells [5] = assay: Sulforhodamine B; assay type: cell-based, human
# MCF-7 tumors [6] = assay: MCF-7 xenograft tumor volume study; assay type: in vivo, mice
# [7] = tested on: HCI-003 patient-derived breast cancer xenografts; assay: HCI-003 patient-derived xenograft tumor volume study; assay type: in vivo, mice; details: fulv alone; HCI-003 xenografts
# [8] = tested on: chronic eosinophilic leukemia; details: weekly dosing; cited from earlier work
# [9] = low-dose (100 mg/kg), single dose
smiles,measurement,setting,value
CS(=O)(=O)N1CCN(Cc2cc3nc(-c4cccc5[nH]ncc45)nc(N4CCOCC4)c3s2)CC1 [GDC-0941],maintained apoptosis (TUNEL),"MCF-7 tumors [1]; fulv plus bi-daily low-dose GDC-0941 (3 d on, 4 d off), until 72 h",~ 10%
same,apoptosis (TUNEL),"MCF-7 tumors [1]; fulv plus daily low-dose GDC-0941, maintained for 72 h",8–10%
same,"peak apoptosis, tumor cells (TUNEL)","MCF-7 tumors [1]; one low dose (100 mg/kg) GDC-0941, at 24 h",6.7%
same,"peak apoptosis, tumor cells (TUNEL)","MCF-7 tumors [1]; single high-dose (800 mg/kg) GDC-0941, at 48 h",30.1%
same,"peak apoptosis, tumor cells (TUNEL)","MCF-7 tumors [1]; two low doses (100 mg/kg at 0 and 12 h) GDC-0941, at 24 h",15.9%
same,time until plasma concentration below the limit of detection,[2]; 100 mg/kg,≤ 24 h
same,plasma concentration in plateau phase,"[2]; 100 mg/kg, plateau after 1 h, maintained for 8 h",6.8 to 10.7 µM
same,time until plasma concentration below detectable limits,[2]; 800 mg/kg,≤ 72 h
same,plasma concentration in plateau phase,"[2]; 800 mg/kg, plateau maintained through 24 h",7.9 to 15 µM
same,caspase-3/7 reporter activity,MCF-7 cells [3],increased caspase-3/7 reporter activity compared to either agent alone
same,Tmax,in vivo,15 to 30 min
same,caspase-3/7 reporter activity,ZR75-1 cells,increased caspase-3/7 reporter activity compared to either agent alone
same,time until intratumor concentration below the detectable limit,[4]; high-dose (800 mg/kg),≤ 72 h
same,time of peak intratumor concentration,[4]; high-dose (800 mg/kg),9 h
same,time at which drug was undetectable in tumor,[4]; low-dose (100 mg/kg) with a second dose at 12 h,36 h
same,time at which drug was undetectable in tumor,[4]; [9],18 h
same,time of peak intratumor concentration,[4]; [9],9 h
same,time of peak intratumor concentration,[4]; two low-dose treatments (100 mg/kg at 0 and 12 h),21 h
same,duration of exposure required to appreciably decrease viability,"MCF-7 cells [5]; MCF-7 cells, GDC-0941 ≤0.25 µM",≥ 24 h
same,growth inhibition,"MCF-7 cells [5]; MCF-7 cells, continuous exposure to 1–2 µM GDC-0941",near-complete growth inhibition
same,tumor response,"MCF-7 tumors [6]; combination of fulv and GDC-0941, regardless of dose/schedule, MCF-7 tumors",near-complete tumor regression in most cases
same,body weight,"MCF-7 tumors [6]; single-agent GDC-0941, different doses/schedules",without notable loss of body weight
same,tumor growth,"MCF-7 tumors [6]; single-agent GDC-0941, different doses/schedules, MCF-7 tumors 500–1,000 mm^3",only slowed tumor growth
C[C@]12CC[C@@H]3c4ccc(O)cc4C[C@@H](CCCCCCCCC[S+]([O-])CCCC(F)(F)C(F)(F)F)[C@H]3[C@@H]1CC[C@@H]2O (stereo partly drawn) [fulv],tumor growth,[7],did not affect tumor growth
same,growth of MCF-7 cells,MCF-7 cells [5]; single-agent fulv (1 µM),effectively inhibited growth
same,tumor response,"MCF-7 tumors [6]; fulv alone, larger MCF-7 tumors (500–1,000 mm^3)",generally unresponsive
Cc1ccc(NC(=O)c2ccc(CN3CCN(C)CC3)cc2)cc1Nc1nccc(-c2cccnc2)n1 [imatinib],patients in whom recurrence was prevented,[8],7/7
